According to PubChem BioAssay AID330 (DTP/NCI, 2004):
“And” between values parts separate entries of the source, which are not always exact repeats. Identical values can stand only once. Toxic doses and inconclusive results are not listed. How the source made its calls: active means survival T/C of 150% or more; inactive means T/C below 125% in these data.

Test system: P388 leukemia ip, CD2F1 mice, survival T/C
Experiment: NCI In Vivo Anticancer Drug Screen. Data for tumor model P388 Leukemia (intraperitoneal) in CD2F1 (CDF1) mice
Conditions: endpoint: median survival time, higher = longer survival
Method in brief: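 Mice carrying the transplanted tumor received test compound or vehicle. Survival was recorded in each group, and the value is the treated-group measurement divided by that of the vehicle-treated control group.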

[1] = dose: 50.0 mg/kg/injection, schedule: Q01DX009 (ip), vehicle: Klucel (hydroxypropylcellulose) (HPC)
[2] = dose: 100.0 mg/kg/injection, schedule: Q01DX009 (ip), vehicle: Klucel (hydroxypropylcellulose) (HPC)
[3] = dose: 200.0 mg/kg/injection, schedule: Q01DX009 (ip), vehicle: Klucel (hydroxypropylcellulose) (HPC)
[4] = dose: 400.0 mg/kg/injection, schedule: Q01DX009 (ip), vehicle: Klucel (hydroxypropylcellulose) (HPC)
[5] = dose: 50.0 mg/kg/injection, schedule: Q01DX009 (ip), vehicle: saline
[6] = dose: 100.0 mg/kg/injection, schedule: Q01DX009 (ip), vehicle: saline
[7] = dose: 200.0 mg/kg/injection, schedule: Q01DX009 (ip), vehicle: saline
[8] = dose: 60.0 mg/kg/injection, schedule: Q01DX005 (ip), vehicle: Klucel (hydroxypropylcellulose) (HPC)
[9] = dose: 120.0 mg/kg/injection, schedule: Q01DX005 (ip), vehicle: Klucel (hydroxypropylcellulose) (HPC)

Measured: T/C

Cc1cc(O)c2c(c1O)C(=O)C13C(=C2O)C(=O)C2C(O)C1C1C(O)C3C(=O)C3=C(O)c4c(O)cc(C)c(O)c4C(=O)C321 (configuration not stated)
inactive: dose: 0.75 mg/kg/injection, schedule: Q01DX005 (ip), vehicle: saline with Tween-80 100 % of control and 106 % of control | dose: 0.78 mg/kg/injection, schedule: Q01DX009 (ip), vehicle: saline with Tween-80 116 % of control | dose: 1.5 mg/kg/injection, schedule: Q01DX005 (ip), vehicle: saline with Tween-80 111 % of control and 115 % of control | dose: 3.0 mg/kg/injection, schedule: Q01DX005 (ip), vehicle: saline with Tween-80 115 % of control

NC(=O)NCCSc1ccc(SCCNC(N)=O)nn1
inactive: [1] 109 % of control | [2] 100 % of control | [3] 98 % of control | [4] 90 % of control

CNC(=O)Nc1ccc[nH]c1=O
inactive: dose: 25.0 mg/kg/injection, schedule: Q01DX009 (ip), vehicle: Klucel (hydroxypropylcellulose) (HPC) 103 % of control and 95 % of control | dose: 25.0 mg/kg/injection, schedule: Q01DX009 (ip), vehicle: saline 101 % of control | [1] 90 % of control and 91 % of control | [5] 99 % of control and 97 % of control | [2] 105 % of control and 96 % of control | [6] 100 % of control and 108 % of control | [3] 101 % of control and 87 % of control | [7] 99 % of control | [4] 109 % of control and 96 % of control | dose: 400.0 mg/kg/injection, schedule: Q01DX009 (ip), vehicle: saline 102 % of control and 109 % of control

CC(C)=CCc1cc(C2COc3cc4c(c(O)c3C2=O)C=CC(C)(C)O4)c(O)cc1O (configuration not stated)
inactive: dose: 8.0 mg/kg/injection, schedule: Q01DX009 (ip), vehicle: Klucel (hydroxypropylcellulose) (HPC) 98 % of control | dose: 16.0 mg/kg/injection, schedule: Q01DX009 (ip), vehicle: Klucel (hydroxypropylcellulose) (HPC) 101 % of control | dose: 32.0 mg/kg/injection, schedule: Q01DX009 (ip), vehicle: Klucel (hydroxypropylcellulose) (HPC) 100 % of control | dose: 64.0 mg/kg/injection, schedule: Q01DX009 (ip), vehicle: Klucel (hydroxypropylcellulose) (HPC) 98 % of control

CC(=O)c1cc2cc3c4c(c2oc1=O)CCCN4CCC3
inactive: [8] 104 % of control | [9] 112 % of control

COc1cccc2c1C(=O)c1c(O)c3c(c(O)c1C2=O)[C@@H](OC)[C@@](O)(C(=O)CO)C[C@@H]3OC1CC(N)C(O)C(C)O1 (some centres not stated)
inactive: dose: 3.13 mg/kg/injection, schedule: Q04DX003 (ip), vehicle: water 108 % of control and 123 % of control | dose: 12.5 mg/kg/injection, schedule: Q04DX003 (ip), vehicle: water 115 % of control | dose: 25.0 mg/kg/injection, schedule: Q04DX003 (ip), vehicle: water 106 % of control and 115 % of control | dose: 50.0 mg/kg/injection, schedule: Q04DX003 (ip), vehicle: water 104 % of control

CC1(C)NC(=O)N(Cc2ccccc2)C1=O
inactive: [1] 102 % of control | [5] 108 % of control | [2] 101 % of control | [6] 108 % of control | [3] 102 % of control | [7] 104 % of control

Cc1ccc(S(=O)(=O)NC(=O)NNC(=O)C(=O)Nc2ccc(F)cc2)cc1
inactive: dose: 50.0 mg/kg/injection, schedule: Q01DX005 (ip), vehicle: Klucel (hydroxypropylcellulose) (HPC) 100 % of control | dose: 100.0 mg/kg/injection, schedule: Q01DX005 (ip), vehicle: Klucel (hydroxypropylcellulose) (HPC) 90 % of control | dose: 200.0 mg/kg/injection, schedule: Q01DX005 (ip), vehicle: Klucel (hydroxypropylcellulose) (HPC) 90 % of control

CCOC(=O)c1cnc2cc(F)ccc2c1Nc1ccc2c(c1)OCO2
inactive: [8] 99 % of control | [9] 97 % of control | dose: 240.0 mg/kg/injection, schedule: Q01DX005 (ip), vehicle: Klucel (hydroxypropylcellulose) (HPC) 105 % of control

OC(c1ccccc1)C(O)C(c1ccccc1)N1CCCCC1 (configuration not stated)
inactive: [6] 92 % of control | [7] 92 % of control
